According to patent publication EP2601188B1, “HEPATITIS C VIRUS INHIBITORS” (Bristol-Myers Squibb Company, priority 2010, dated 2012):
Where two headings read alike, the source gives them in different places.

System: HCV 1b genotype
Assay: HCV Replicon assay (HCV-neo replicon cells, wild-type)
Type: cell-based
Settings: HCV 1b genotype replicon
Procedure: An HCV Replicon assay was utilized in the present disclosure, and was prepared, conducted and validated as described in commonly owned PCT/US2006/022197 and in O'Boyle et. al. Antimicrob Agents Chemother. 2005 Apr;49(4):1346-53. Assay methods incorporating luciferase reporters have also been used as described (Apath.com).
HCV-neo replicon cells and replicon cells containing mutations in the NS5A region were used to test the currently described family of compounds. The compounds were determined to have more than 10-fold less inhibitory activity on cells containing mutations than wild-type cells. Thus, the compounds of the present disclosure can be effective in inhibiting the function of the HCV NS5A protein and are understood to be as effective in combinations as previously described in application PCT/US2006/022197 and commonly owned WO/O4014852. Further, the compounds of the present disclosure can be effective against the HCV 1b genotype. It should also be understood that the compounds of the present disclosure can inhibit multiple genotypes of HCV. […] In one embodiment, compounds of the present disclosure are inhibitory versus 1a, 1b, 2a, 2b, 3a, 4a, and 5a genotypes.

[1] = Hepatitis C virus, values given in pM, read-out: EC50
[2] = Hepatitis C virus, values in nM, read-out: EC50
[3] = Hepatitis C virus, class symbols, read-out: EC50 Range

| Molecule | EC50 [3] [pM] | also measured |
| --- | --- | --- |
| COC(=O)N[C@H](C(=O)N1[C@@H]2C[C@@H]2C[C@H]1c1nc2c([nH]1)-c1ccc(-c3ccc4[nH]c([C@@H]5C[C@H]6C[C@H]6N5C(=O)[C@@H](NC(=O)OC)C(C)C)nc4c3)cc1CCC2)C(C)C [J.24, methyl ((1S)-1-(((1R,3S,5R)-3-(8-(2-((1R,3S,5R)-2-((2S)-2-((methoxycarbonyl)amino)-3-methylbutanoyl)-2-azabicyclo[3.1.0]hex-3-yl)-1H-benzimidazol-5-yl)-1,4,5,6-tetrahydrobenzo[3,4]cyclohepta[1,2-d]imidazol-2-yl)-2-azabicyclo[3.1.0]hex-2-yl)carbonyl)-2-methylpropyl)carbamate] | – | EC50 [1]: 10 pM |
| COC(=O)NC(C(=O)N1[C@@H](C)CC[C@H]1c1nc2ccc3cc(C#Cc4ccc5[nH]c([C@@H]6CC[C@H](C)N6C(=O)[C@@H](NC(=O)OC)C(C)C)nc5c4)ccc3c2[nH]1)C1CCOCC1 (stereo partly drawn) [J.28i.4a, methyl ((1S)-1-(((2S,5S)-2-(5-((2-((2S,5S)-1-(((methoxycarbonyl)amino)(tetrahydro-2H-pyran-4-yl)acetyl)-5-methyl-2-pyrrolidinyl)-1H-naphtho[1,2-d]imidazol-7-yl)ethynyl)-1H-benzimidazol-2-yl)-5-methyl-1-pyrrolidinyl)carbonyl)-2-methylpropyl)carbamate] | – | EC50 [2]: 3800 pM |
| Cc1ccc(-c2ncc(-c3ccc4[nH]c([C@@H]5CCCN5C(=O)[C@@H](c5ccccc5)N(C)C)nc4c3)o2)cc1NC(=O)[C@@H]1CCCN1C(=O)CN(C)C [J.52a, N,N-dimethylglycyl-N-(5-(5-(2-((2S)-1-((2R)-2-(dimethylamino)-2-phenylacetyl)-2-pyrrolidinyl)-1H-benzimidazol-5-yl)-1,3-oxazol-2-yl)-2-methylphenyl)-L-prolinamide] | 4570 to 99000 | – |
| COC(=O)N[C@H](C(=O)N1CCC[C@H]1c1nc[nH]c1-c1cccc(C#Cc2ccc3[nH]c([C@@H]4CCCN4C(=O)[C@H](NC(=O)OC)C(C)C)nc3c2)c1)C(C)C (stereo in doubt) [J.281, methyl ((1S)-1-(((2S)-2-(5-(3-((2-((2S)-1-((2R)-2-((methoxycarbonyl)amino)-3-methylbutanoyl)-2-pyrrolidinyl)-1H-benzimidazol-5-yl)ethynyl)phenyl)-1H-imidazol-4-yl)-1-pyrrolidinyl)carbonyl)-2-methylpropyl)carbamate] | 4570 to 99000 | EC50 [2]: 7000 pM |
| COc1cccc2c(C(=O)N3CCC[C@H]3C(=O)Nc3ccc(-c4ncc(-c5ccc6[nH]c([C@@H]7CCCN7C(=O)c7nc(Cl)cc8c(OC)cccc78)nc6c5)o4)cc3F)nc(Cl)cc12 [J.51b, 1-((3-chloro-5-methoxy-1-isoquinolinyl)carbonyl)-N-(4-(5-(2-((2S)-1-((3-chloro-5-methoxy-1-isoquinolinyl)carbonyl)-2-pyrrolidinyl)-1H-benzimidazol-5-yl)-1,3-oxazol-2-yl)-2-fluorophenyl)-L-prolinamide] | 100000 to 999000 | – |
| O=C(Nc1ccc(CCc2ccc3nc([C@@H]4CCCN4C(=O)Cc4ccccc4)[nH]c3c2)cc1)[C@@H]1CCCN1C(=O)Cc1ccccc1 [M.11, (S)-1-(2-phenylacetyl)-N-(4-(2-(2-((S)-1-(2-phenylacetyl)pyrrolidin-2-yl)-1H-benzo [d]imidazol-6-yl)ethyl)phenyl)pyrrolidine-2-carboxamide] | 4570 to 99000 | – |
| (2R)-2-(dimethylamino)-N-(3-(5-(2-((2S)-1-((2R)-2-(dimethylamino)-2-phenylacetyl)-2-pyrrolidinyl)-1H-benzimidazol-5-yl)-1,3-oxazol-2-yl)phenyl)-2-phenylacetamide [J.48b] | – | EC50 (class symbols, read-out: EC50 Range): 4570 to 99000 pM |
| CC(=O)N1CCC[C@H]1C(=O)Nc1ccc(C#Cc2ccc3nc([C@@H]4CCCN4C(=O)Cc4ccccc4)[nH]c3c2)cc1 [M.8, (S)-1-acetyl-N-(4-((2-((S)-1-(2-phenylacetyl)pyrrolidin-2-yl)-1H-benzo[d]imidazol-6-yl)ethynyl)phenyl)pyrrolidine-2-carboxamide] | 4570 to 99000 | EC50 [2]: 46400 pM |
| COC(=O)N[C@H](C(=O)N1CCC[C@H]1c1nc2c(F)cc(C#Cc3ccc4c(ccc5nc([C@@H]6CCCN6C(=O)[C@@H](NC(=O)OC)C(C)C)[nH]c54)c3)cc2[nH]1)C(C)C [J.28h, methyl ((1S)-1-(((2S)-2-(4-fluoro-6-((2-((2S)-1-((2S)-2-((methoxycarbonyl)amino)-3-methylbutanoyl)-2-pyrrolidinyl)-1H-naphtho [1,2-d]imidazol-7-yl)ethynyl)-1H-benzimidazol-2-yl)-1-pyrrolidinyl)carbonyl)-2-methylpropyl)carbamate] | – | EC50 [1]: 120 pM |
| O=C([C@@H](c1ccccc1)N1CCCCC1)N1CCC[C@H]1c1nc(C#Cc2ccc(-c3ccc4[nH]c([C@@H]5CCCN5C(=O)[C@@H](c5ccccc5)N5CCCCC5)nc4c3)cc2)c[nH]1 [JB.12, 2-((2S)-1-((2R)-2-phenyl-2-(1-piperidinyl)acetyl)-2-pyrrolidinyl)-5-(4-((2-((2S)-1-((2R)-2-phenyl-2-(1-piperidinyl)acetyl)-2-pyrrolidinyl)-1H-imidazol-4-yl)ethynyl)phenyl)-1H-benzimidazole] | – | EC50 [1]: 65.2 pM |
| COC(=O)N[C@H](C(=O)N1CCC[C@H]1c1nc(-c2ccc(-c3ccc(-c4ccc5[nH]c([C@@H]6CCCN6C(=O)[C@@H](NC(=O)OC)C(C)C)nc5c4)cc3)cc2)c[nH]1)C(C)C [J.26, methyl ((1S)-1-(((2S)-2-(5-(4'-(2-((2S)-1-((2S)-2-((methoxycarbonyl)amino)-3-methylbutanoyl)-2-pyrrolidinyl)-1H-imidazol-4-yl)-4-biphenylyl)-1H-benzimidazol-2-yl)-1-pyrrolidinyl)carbonyl)-2-methylpropyl)carbamate] | – | EC50 [1]: 5 pM |
| O=C(Nc1ccc(-c2ncc(-c3ccc4[nH]c([C@@H]5CCCN5C(=O)[C@H](O)c5ccccc5)nc4c3)o2)cc1)[C@@H]1CCCN1C(=O)[C@H](O)c1ccccc1 [J.50, 1-((2R)-2-hydroxy-2-phenylacetyl)-N-(4-(5-(2-((2S)-1-((2R)-2-hydroxy-2-phenylacetyl)-2-pyrrolidinyl)-1H-benzimidazol-5-yl)-1,3-oxazol-2-yl)phenyl)-L-prolinamide] | 4570 to 99000 | – |
| O=C(Nc1ccc(C#Cc2ccc3nc([C@@H]4CCCN4C(=O)Cc4ccccc4)[nH]c3c2)cc1)[C@@H]1CCCN1C(=O)Cc1ccccc1 [M.9, (S)-1-(2-phenylacetyl)-N-(4-((2-((S)-1-(2-phenylacetyl)pyrrolidin-2-yl)-1H-benzo [d]imidazol-6-yl)ethynyl)phenyl)pyrrolidine-2-carboxamide] | 4570 to 99000 | – |
| O=C(Nc1ccc(-c2ncc(-c3ccc4[nH]c([C@@H]5CCCN5C(=O)[C@H](O)c5ccccc5)nc4c3)o2)cc1F)[C@@H]1CCCN1C(=O)[C@H](O)c1ccccc1 [J.51, N-(2-fluoro-4-(5-(2-((2S)-1-((2R)-2-hydroxy-2-phenylacetyl)-2-pyrrolidinyl)-1H-benzimidazol-5-yl)-1,3-oxazol-2-yl)phenyl)-1-((2R)-2-hydroxy-2-phenylacetyl)-L-prolinamide] | 4570 to 99000 | – |
| COC(=O)N[C@@H](C(=O)N1CCC[C@H]1c1nc2cc(-c3ccc(-c4ccc5c(ccc6nc([C@@H]7CCCN7C(=O)[C@H](NC(=O)OC)c7ccccc7)[nH]c65)c4)cc3)ccc2[nH]1)c1ccccc1 [J.27c, methyl ((1R)-2-((2S)-2-(7-(4-(2-((2S)-1-((2R)-2-((methoxycarbonyl)amino)-2-phenylacetyl)-2-pyrrolidinyl)-1H-benzimidazol-5-yl)phenyl)-1H-naphtho[1,2-d]imidazol-2-yl)-1-pyrrolidinyl)-2-oxo-1-phenylethyl)carbamate] | – | EC50 [1]: 3 pM |
| O=C(Nc1cccc(-c2ncc(-c3ccc4[nH]c([C@@H]5CCCN5C(=O)CC5CC5)nc4c3)o2)c1)[C@@H]1CCCN1C(=O)CC1CC1 [J.53, 1-(cyclopropylacetyl)-N-(3-(5-(2-((2S)-1-(cyclopropylacetyl)-2-pyrrolidinyl)-1H-benzimidazol-5-yl)-1,3-oxazol-2-yl)phenyl)-L-prolinamide] | 100000 to 999000 | – |
| CCN(CC)[C@@H](C(=O)N1CCC[C@H]1c1nc2cc(C#Cc3cccc(-c4[nH]cnc4[C@@H]4CCCN4C(=O)[C@@H](c4ccccc4)N(CC)CC)c3)ccc2[nH]1)c1ccccc1 [J.28m, (1R)-2-((2S)-2-(5-(3-((2-((2S)-1-((2R)-2-(diethylamino)-2-phenylacetyl)-2-pyrrolidinyl)-1H-benzimidazol-5-yl)ethynyl)phenyl)-1H-imidazol-4-yl)-1-pyrrolidinyl)-N,N-diethyl-2-oxo-1-phenylethanamine] | 4570 to 99000 | EC50 [2]: 55700 pM |
| COC(=O)N[C@@H](C(=O)N1CCC[C@H]1c1nc(C#Cc2ccc(-c3ccc4[nH]c([C@@H]5CCCN5C(=O)[C@H](NC(=O)OC)C(C)C)nc4c3)cc2)c[nH]1)C(C)C [JB.8.1, methyl ((1R)-1-(((2S)-2-(4-((4-(2-((2S)-1-((2R)-2-((methoxycarbonyl)amino)-3-methylbutanoyl)-2-pyrrolidinyl)-1H-benzimidazol-5-yl)phenyl)ethynyl)-1H-imidazol-2-yl)-1-pyrrolidinyl)carbonyl)-2-methylpropyl)carbamate] | 100000 to 999000 | – |
| CC(=O)N1CCC[C@H]1C(=O)Nc1ccc(CCc2ccc3nc([C@@H]4CCCN4C(=O)Cc4ccccc4)[nH]c3c2)cc1 [M.10, (S)-1-acetyl-N-(4-(2-(2-((S)-1-(2-phenylacetyl)pyrrolidin-2-yl)-1H-benzo[d]imidazol-6-yl)ethyl)phenyl)pyrrolidine-2-carboxamide] | 100000 to 999000 | EC50 [2]: 202000 pM |
